In US6376497B1, “Antifungal azole derivatives having a fluorinated vinyl group and process for preparing same” (Korea Research Institute of Chemical Technology, priority 1999, dated 2002):

Assays:
Assay in all cases: In vitro antifungal activity, microbroth dilution MIC
Assay type in all cases: cell-based
[1] = system: Aspergillus furnigatus B. 19119; conditions: RPMI-1640, 35° C., no growth observed
Summary of the method: (§1)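 Broth microdilution adapted from NCCLS M27, in RPMI-1640 with 0.165 M MOPS, pH 7.0. Yeast or mould inoculum at 2×10^3 CFU/ml was mixed 1:1 with DMSO-derived compound solutions (200 to 0.10 μg/ml before mixing) and incubated at 35 °C for 4 to 48 h. MIC was the concentration showing no growth.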

[2] = system: Aspergillus niger A. 16404; conditions: RPMI-1640, 35° C., no growth observed
Summary of the method: as §1

Candida krusei K. 11655 = conditions: RPMI-1640, 35° C., 4 to 48 hours, no growth observed
Summary of the method: as §1

[3] = system: Trichophyton mentagrophytes B. 32663; conditions: RPMI-1640, 35° C., no growth observed
Summary of the method: as §1

[4] = system: Candida albicans A. 10231; conditions: RPMI-1640, 35° C., 4 to 48 hours, no growth observed
Summary of the method: as §1

[5] = system: Trichophyton mentagrophytes A. 9129; conditions: RPMI-1640, 35° C., no growth observed
Summary of the method: as §1

[6] = system: Cryptococcus neoformans IFM. 40092; conditions: RPMI-1640, 35° C., no growth observed
Summary of the method: as §1

[7] = system: Torulopsis glabrata B. 16205; conditions: RPMI-1640, 35° C., 4 to 48 hours, no growth observed
Summary of the method: as §1

[8] = system: Cryptococcus neoformans A. 34144; conditions: RPMI-1640, 35° C., no growth observed
Summary of the method: as §1

[9] = system: Candida albicans IFO. 1385; conditions: RPMI-1640, 35° C., 4 to 48 hours, no growth observed
Summary of the method: as §1

[10] = system: Candida pseudotropicalis K. 11658; conditions: RPMI-1640, 35° C., 4 to 48 hours, no growth observed
Summary of the method: as §1

Candida albicans C1-2 = conditions: RPMI-1640, 35° C., 4 to 48 hours, no growth observed
Summary of the method: as §1

[11] = system: Cryptococcus neoformans B. 42419; conditions: RPMI-1640, 35° C., 4 to 48 hours, no growth observed
Summary of the method: as §1

[12] = system: Candida parapsitosis A. 7330; conditions: RPMI-1640, 35° C., 4 to 48 hours, no growth observed
Summary of the method: as §1

[13] = system: Candida tropicalis A. 13803; conditions: RPMI-1640, 35° C., 4 to 48 hours, no growth observed
Summary of the method: as §1

Row | SMILES | Minimal inhibitory concentration(MIC), A furnigatus B. 19119 ([1]; 4 to 48 hours) | Minimal inhibitory concentration(MIC), A. niger A. 16404 ([2]; 4 to 48 hours) | Minimal inhibitory concentration(MIC), C. krusei K. 11655 (Candida krusei K. 11655) | Minimal inhibitory concentration(MIC), T. mentagrophytes B. 32663 ([3]; 4 to 48 hours) | Minimal inhibitory concentration(MIC), C. albicans A. 10231 [4] | Minimal inhibitory concentration(MIC), T. mentagrophytes A. 9129 ([5]; 4 to 48 hours) | Minimal inhibitory concentration(MIC), Cry. neoformans IFM. 40092 ([6]; 4 to 48 hours) | Minimal inhibitory concentration(MIC), T. glabrata B. 16205 [7] | Minimal inhibitory concentration(MIC), Cry. neoformans A. 34144 ([8]; 4 to 48 hours) | Minimal inhibitory concentration(MIC), C. albicans IFO. 1385 [9] | Minimal inhibitory concentration(MIC), C. pseudotropicalis K. 11658 [10] | Minimal inhibitory concentration(MIC), C. albicans C1-2 (Candida albicans C1-2) | Minimal inhibitory concentration(MIC), Cry. neoformans B. 42419 [11] | Minimal inhibitory concentration(MIC), C. parapsitosis A. 7330 [12] | Minimal inhibitory concentration(MIC), C. tropicalis A. 13803 [13] | other results
1 | FC(Oc1ccc(OCC2COC(Cn3ccnc3)(c3ccc(Cl)cc3Cl)O2)cc1)=C(c1cccc(F)c1)C(F)(F)F (mixture of isomers) [Ex. 103] | 100 µg/mL | >100 µg/mL | >100 µg/mL | 6.25 µg/mL | 50.0 µg/mL | 12.5 µg/mL | 0.78 µg/mL | 50.0 µg/mL | 3.13 µg/mL | 3.13 µg/mL | >100 µg/mL | 50.0 µg/mL | 3.13 µg/mL | >100 µg/mL | >100 µg/mL | 
2 | Cc1cc(C)cc(C(=C(F)N2CCN(c3ccc(OCC4COC(Cn5ccnc5)(c5ccc(F)cc5F)O4)cc3)CC2)C(F)(F)F)c1 (mixture of isomers) [Ex. 141] |  |  | 1.56 µg/mL |  | >100 µg/mL |  |  | 100 µg/mL |  | 0.78 µg/mL | 3.13 µg/mL | >100 µg/mL | 0.78 µg/mL | 1.56 µg/mL | >100 µg/mL | Minimal inhibitory concentration(MIC), A furnigatus B. 19119 [1]: 50.0 µg/mL; Minimal inhibitory concentration(MIC), A. niger A. 16404 [2]: >100 µg/mL; Minimal inhibitory concentration(MIC), T. mentagrophytes B. 32663 [3]: 0.78 µg/mL; Minimal inhibitory concentration(MIC), T. mentagrophytes A. 9129 [5]: 6.25 µg/mL; Minimal inhibitory concentration(MIC), Cry. neoformans IFM. 40092 [6]: 0.78 µg/mL; Minimal inhibitory concentration(MIC), Cry. neoformans A. 34144 [8]: 1.56 µg/mL
3 | FC(Oc1ccc(OCC2COC(Cn3ccnc3)(c3ccc(Cl)cc3Cl)O2)cc1)=C(c1ccc(Cl)cc1)C(F)(F)F (mixture of isomers) [Ex. 102] | 100 µg/mL | >100 µg/mL | >100 µg/mL | 12.5 µg/mL | 100 µg/mL | 25.0 µg/mL | 3.13 µg/mL | 100 µg/mL | 12.5 µg/mL | 6.25 µg/mL | >100 µg/mL | 100 µg/mL | >100 µg/mL | >100 µg/mL | >100 µg/mL | 
